Experimental data: ChEMBL document CHEMBL2434963, “Synthesis and cytotoxic activity of some novel steroidal C-17 pyrazolinyl derivatives” (Eur J Med Chem, 2013)
≈ marks a conversion by molar mass, not a printed value.

Key:
[1] = system: HeLa; assay: cells; details: Homo sapiens, 48 h
Description: Cytotoxicity against human HeLa cells after 48 hrs by MTT assay

[2] = system: Artemia salina; assay: Toxicity in Artemia salina larvae after 24 hrs by microscopic analysis; format: functional
[3] = system: NCI-H460; assay: Cytotoxicity against human NCI-H460 cells after 48 hrs by MTT assay; format: functional, cell-based; details: NCI-H460, 48 h
[4] = system: HepG2; assay: Cytotoxicity against human HepG2 cells after 48 hrs by MTT assay; format: functional, cell-based; details: HepG2, 48 h
[5] = system: HeLa; assay: Cell cycle arrest in human HeLa cells assessed as accumulation at G0/G1 phase at 20 ug/ml after 24 hrs by propidium iodide staining-based flow cytometry (reference value: 67.7%); format: functional
[6] = system: HeLa; assay: Cell cycle arrest in human HeLa cells assessed as accumulation at S phase at 10 ug/ml after 24 hrs by propidium iodide staining-based flow cytometry (reference value: 20.6%); format: functional
[7] = system: HeLa; assay: Cell cycle arrest in human HeLa cells assessed as accumulation at G0/G1 phase at 40 ug/ml after 24 hrs by propidium iodide staining-based flow cytometry (reference value: 67.7%); format: functional
[8] = system: HeLa; assay: Cell cycle arrest in human HeLa cells assessed as accumulation at G2/M phase at 40 ug/ml after 24 hrs by propidium iodide staining-based flow cytometry (reference value: 11.7%); format: functional
[9] = system: HeLa; assay: Cell cycle arrest in human HeLa cells assessed as accumulation at S phase at 20 ug/ml after 24 hrs by propidium iodide staining-based flow cytometry (reference value: 20.6%); format: functional
[10] = system: HeLa; assay: Cell cycle arrest in human HeLa cells assessed as accumulation at G2/M phase at 20 ug/ml after 24 hrs by propidium iodide staining-based flow cytometry (reference value: 11.7%); format: functional
[11] = system: HeLa; assay: Cell cycle arrest in human HeLa cells assessed as accumulation at S phase at 40 ug/ml after 24 hrs by propidium iodide staining-based flow cytometry (reference value: 20.6%); format: functional
[12] = system: HeLa; assay: Cell cycle arrest in human HeLa cells assessed as accumulation at G0/G1 phase at 10 ug/ml after 24 hrs by propidium iodide staining-based flow cytometry (reference value: 67.7%); format: functional
[13] = system: HeLa; assay: Cell cycle arrest in human HeLa cells assessed as accumulation at G2/M phase at 10 ug/ml after 24 hrs by propidium iodide staining-based flow cytometry (reference value: 11.7%); format: functional

CC(=O)N1N=C([C@H]2CC[C@H]3[C@@H]4CCC5=CC(=O)C=C[C@]5(C)[C@H]4CC[C@]23C)CC1c1ccc([N+](=O)[O-])cc1 (some centres undefined)
IC50 [1]: > 50 µg/mL
LC50 [2]: 38.2 µg/mL (≈ 76.1 µM)

CC(=O)N1N=C([C@H]2CC[C@H]3[C@@H]4CCC5=CC(=O)C=C[C@]5(C)[C@H]4CC[C@]23C)CC1c1ccc(Cl)cc1 (some centres undefined)
IC50 [1]: > 50 µg/mL
LC50 [2]: 36.6 µg/mL (≈ 74.6 µM)

CC(=O)N1N=C([C@H]2CC[C@H]3[C@@H]4CCC5=C(Cl)C(=O)C=C[C@]5(C)[C@H]4CC[C@]23C)CC1c1ccccc1[N+](=O)[O-] (some centres undefined)
IC50 [3]: 14.8 µg/mL (≈ 27.6 µM)
IC50 [4]: > 50 µg/mL
IC50 [1]: > 50 µg/mL
LC50 [2]: 7.7 µg/mL (≈ 14.4 µM)

CC(=O)N1N=C([C@H]2CC[C@H]3[C@@H]4CCC5=CC(=O)C=C[C@]5(C)[C@H]4CC[C@]23C)CC1c1ccccc1Cl (some centres undefined)
IC50 [1]: > 50 µg/mL
LC50 [2]: 21.7 µg/mL (≈ 44.2 µM)

COc1ccccc1C1CC([C@H]2CC[C@H]3[C@@H]4CCC5=CC(=O)C=C[C@]5(C)[C@H]4CC[C@]23C)=NN1C(C)=O (some centres undefined)
IC50 [1]: > 50 µg/mL
LC50 [2]: 44.9 µg/mL (≈ 92.2 µM)

CC(=O)[C@H]1CC[C@H]2[C@@H]3CCC4=CC(=O)CC[C@]4(C)[C@H]3CC[C@]12C [PROGESTERONE]
IC50 [1]: > 50 µg/mL
LC50 [2]: > 100 µg/mL

CC(=O)N1N=C([C@H]2CC[C@H]3[C@@H]4CCC5=CC(=O)C=C[C@]5(C)[C@H]4CC[C@]23C)CC1c1ccccc1 (some centres undefined)
IC50 [1]: > 50 µg/mL
LC50 [2]: 18.9 µg/mL (≈ 41.5 µM)

CC(=O)N1N=C([C@H]2CC[C@H]3[C@@H]4CCC5=CC(=O)C=C[C@]5(C)[C@H]4CC[C@]23C)CC1c1ccccc1[N+](=O)[O-] (some centres undefined)
IC50 [1]: > 50 µg/mL
LC50 [2]: 30.2 µg/mL (≈ 60.2 µM)

O=c1[nH]cc(F)c(=O)[nH]1 [FLUOROURACIL]
IC50 [3]: 2.48 µg/mL (≈ 19.1 µM)
IC50 [1]: 0.887 µg/mL (≈ 6.82 µM)

CC(=O)N1N=C([C@H]2CC[C@H]3[C@@H]4CCC5=C(Cl)C(=O)C=C[C@]5(C)[C@H]4CC[C@]23C)CC1c1ccccc1 (some centres undefined)
IC50 [3]: 13.1 µg/mL (≈ 26.7 µM)
IC50 [4]: 17.3 µg/mL (≈ 35.2 µM)
IC50 [1]: 13.7 µg/mL (≈ 27.9 µM)
LC50 [2]: 4.99 µg/mL (≈ 10.2 µM)

CC(=O)N1N=C([C@H]2CC[C@H]3[C@@H]4CCC5=C(Cl)C(=O)C=C[C@]5(C)[C@H]4CC[C@]23C)CC1c1ccc([N+](=O)[O-])cc1 (some centres undefined)
IC50 [3]: > 50 µg/mL
IC50 [4]: > 50 µg/mL
IC50 [1]: > 50 µg/mL
LC50 [2]: 8.43 µg/mL (≈ 15.7 µM)

CC(=O)[C@H]1CC[C@H]2[C@@H]3CCC4=C(Cl)C(=O)C=C[C@]4(C)[C@H]3CC[C@]12C
IC50 [3]: 26.7 µg/mL (≈ 77 µM)
IC50 [4]: > 50 µg/mL
IC50 [1]: > 50 µg/mL
LC50 [2]: > 100 µg/mL

COc1ccc(C2CC([C@H]3CC[C@H]4[C@@H]5CCC6=C(Cl)C(=O)C=C[C@]6(C)[C@H]5CC[C@]34C)=NN2C(C)=O)cc1 (mixture of isomers)
IC50 [3]: 17.9 µg/mL
IC50 [4]: 16.9 µg/mL
IC50 [1]: 19.7 µg/mL
LC50 [2]: 27.3 µg/mL

COc1ccc(C2CC([C@H]3CC[C@H]4[C@@H]5CCC6=CC(=O)C=C[C@]6(C)[C@H]5CC[C@]34C)=NN2C(C)=O)cc1 (some centres undefined)
IC50 [1]: > 50 µg/mL
LC50 [2]: > 50 µg/mL

CC(=O)N1N=C([C@H]2CC[C@H]3[C@@H]4CCC5=C(Cl)C(=O)C=C[C@]5(C)[C@H]4CC[C@]23C)CC1c1ccc(Cl)cc1 (some centres undefined)
IC50 [3]: 13.9 µg/mL (≈ 26.4 µM)
IC50 [4]: 25.3 µg/mL (≈ 48.1 µM)
IC50 [1]: 26.6 µg/mL (≈ 50.6 µM)
LC50 [2]: 10.4 µg/mL (≈ 19.8 µM)

CC(=O)N1N=C([C@H]2CC[C@H]3[C@@H]4CCC5=C(Cl)C(=O)C=C[C@]5(C)[C@H]4CC[C@]23C)CC1c1ccccc1Cl (mixture of isomers)
Activity [5]: 51.4%
IC50 [3]: 10.3 µg/mL
Activity [6]: 34.3%
Activity [7]: 47.6%
Activity [8]: 11.3%
Activity [9]: 38.9%
IC50 [4]: 24.3 µg/mL
Activity [10]: 9.7%
Activity [11]: 41.1%
Activity [12]: 55.8%
IC50 [1]: 12.5 µg/mL
Activity [13]: 9.9%
LC50 [2]: 5.65 µg/mL

COc1ccccc1C1CC([C@H]2CC[C@H]3[C@@H]4CCC5=C(Cl)C(=O)C=C[C@]5(C)[C@H]4CC[C@]23C)=NN1C(C)=O (mixture of isomers)
IC50 [3]: 15.7 µg/mL
IC50 [4]: 16.2 µg/mL
IC50 [1]: 15.3 µg/mL
LC50 [2]: 9.92 µg/mL
